We go through 3 molecules from ChEMBL document CHEMBL1157177, “Trivalent, Gal/GalNAc-containing ligands designed for the asialoglycoprotein receptor” (Bioorg Med Chem, 2008).

A short description of this experiment: Displacement of [125I]asialoorosomucoid from ASGP receptor. (In general: Displacement assays read how much labelled ligand stays bound in the presence of the test substance.)

As usually defined, the Ki is the dissociation constant of the complex between target and ligand, obtained from inhibition or displacement. High values mean lower affinity, low ones higher affinity. Molecule `O=C(CCCCO[C@@H]1O[C@H](CO)[C@H](O)[C@H](O)[C@H]1O)NCCCNC(=O)CCOCC(COCCC(=O)NCCCNC(=O)CCCCO[C@@H]1O[C@H](CO)[C@H](O)[C@H](O)[C@H]1O)(COCCC(=O)NCCCNC(=O)CCCCO[C@@H]1O[C@H](CO)[C@H](O)[C@H](O)[C@H]1O)NC(=O)CNC(=O)OCc1ccccc1` came in with a Ki of 93 nM.

In turn, `COC(=O)CCCCC(=O)NCC(=O)NC(COCOCCOCCOCCOCCO[C@@H]1O[C@H](CO)[C@H](O)[C@H](O)[C@H]1O)(COCOCCOCCOCCOCCO[C@@H]1O[C@H](CO)[C@H](O)[C@H](O)[C@H]1O)COCOCCOCCOCCOCCO[C@@H]1O[C@H](CO)[C@H](O)[C@H](O)[C@H]1O` gave a Ki of 200 nM.

In turn, `CC(=O)N[C@H]1[C@H](OCCOCCOCCNC(=O)CCOCC(COCCC(=O)NCCOCCOCCO[C@@H]2O[C@H](CO)[C@H](O)[C@H](O)[C@H]2NC(C)=O)(COCCC(=O)NCCOCCOCCO[C@@H]2O[C@H](CO)[C@H](O)[C@H](O)[C@H]2NC(C)=O)NC(=O)CN)O[C@H](CO)[C@H](O)[C@@H]1O` returned a Ki of 2 nM.
